Common to all, as to assay type: functional
Assay [1] has as its system Acinetobacter baumannii. Kind of assay: Antimicrobial activity against Acinetobacter baumannii ATCC 19606 after 24 hrs. The following applies: ATCC 19606 = CIP 70.34 = JCM 6841, 24 h.
Assay [2] relates to Acinetobacter baumannii. Kind of assay: Antimicrobial activity against Acinetobacter baumannii WRAIR after 24 hrs.
For another assay, the system named is Staphylococcus aureus. Nature of the assay: Antimicrobial activity against methicillin-resistant Staphylococcus aureus ATCC 33591 after 24 hrs. The following applies: ATCC 33591, 24 h.
In a further assay the test system is Yersinia pestis. Nature of the assay: Antimicrobial activity against Yersinia pestis CO92 after 24 hrs. The following applies: CO92, 24 h.
In the next assay the test system is Brucella melitensis. Kind of assay: Antimicrobial activity against Brucella melitensis 16 M after 24 hrs.
The subject of a further assay is Brucella abortus. Nature of the assay: Antimicrobial activity against Brucella abortus 2308 after 24 hrs. The following applies: Brucella abortus, 2308, 24 h.
The next assay deals with Brucella suis. Nature of the assay: Antimicrobial activity against Brucella suis ATCC 23445 after 24 hrs. The following applies: ATCC 23445, 24 h.
A further assay concerns Bacillus anthracis. Kind of assay: Antimicrobial activity against Bacillus anthracis Ames after 24 hrs.
The next assay deals with Francisella tularensis. Kind of assay: Antimicrobial activity against Francisella tularensis SCHU-S4 after 24 hrs. The following applies: SCHU-S4, 24 h.
The next assay relates to Burkholderia mallei. Kind of assay: Antimicrobial activity against Burkholderia mallei ATCC 23444 after 24 hrs. The following applies: ATCC 23444, 24 h.
Assay [3] concerns Burkholderia pseudomallei. Nature of the assay: Antimicrobial activity against Burkholderia pseudomallei BURK003(1026b) after 24 hrs.

Converted amounts (≈) assume the structure as drawn. Starred links: 1 amine or outer side, 2 acyl side, 3 side chain; linkers in the order of their positions; H or OH if unused. Non-standard residues stand in square brackets, D forms with d. Residues, ends and D or L forms follow the SMILES beside them. ξ: configuration not given here. Pro(3ξ,4ξ-(CH2)4) = O=C(O)[C@H]1NCC2CCCCC21; X1 = O=C([C@@H]1CN([*:1])C2CCCCC21)[*:2]; Tic = O=C(O)[C@@H]1Cc2ccccc2CN1; Ahx = NCCCCCC(=O)O; GABA = NCCCC(=O)O

This is an account of results in ChEMBL document CHEMBL1255229, “Novel antimicrobial peptides that exhibit activity against select agents and other drug resistant bacteria” (2010).

Take `CC(=O)N[C@@H](CCCCN)C(=O)N[C@@H](CCCCN)C(=O)N[C@@H](CCCCN)C(=O)N[C@@H](CCCCN)C(=O)NCC(=O)N[C@@H](Cc1ccccc1)C(=O)N1Cc2ccccc2C[C@H]1C(=O)N1C[C@@H](C(=O)NCC(=O)N[C@@H](CCCCN)C(=O)N2Cc3ccccc3C[C@H]2C(=O)N2C[C@@H](C(=O)NCC(=O)N[C@@H](Cc3ccccc3)C(=O)N3Cc4ccccc4C[C@H]3C(=O)N3C[C@@H](C(=O)NCC(=O)N[C@@H](CCCCN)C(=O)N4Cc5ccccc5C[C@H]4C(N)=O)C4CCCCC43)C3CCCCC32)C2CCCCC21` (some centres undefined) (Ac-KKKKGF[Tic][X1]GK[Tic][X1]GF[Tic][X1]GK[Tic]-NH2): the MIC against Acinetobacter baumannii [1] came to 12.8 µM (≈ 31.2 µg/mL); in the assay with Acinetobacter baumannii [2] it was 12.8 µM (≈ 31.2 µg/mL); in the assay with Staphylococcus aureus, 102 µM (≈ 249 µg/mL); in the assay on Yersinia pestis, 13.1 µM (≈ 32 µg/mL); in the assay with Brucella melitensis, 51 µM (≈ 124 µg/mL); against Brucella abortus, 51 µM (≈ 124 µg/mL). The MIC in the assay with Brucella suis is 25.6 µM (≈ 62.5 µg/mL); against Bacillus anthracis it was 0.4 µM (≈ 0.976 µg/mL); with Francisella tularensis it was 51 µM (≈ 124 µg/mL); in the assay on Burkholderia mallei it was 204 µM (≈ 498 µg/mL); in [3], 204 µM (≈ 498 µg/mL).
With `CC(=O)NCCCCCC(=O)N[C@@H](Cc1ccccc1)C(=O)N1Cc2ccccc2C[C@H]1C(=O)N1CC2CCCCC2[C@H]1C(=O)NCCCCCC(=O)N[C@@H](CCCCN)C(=O)N1Cc2ccccc2C[C@H]1C(=O)N1CC2CCCCC2[C@H]1C(=O)NCCCCCC(=O)N[C@@H](Cc1ccccc1)C(=O)N1Cc2ccccc2C[C@H]1C(=O)N1CC2CCCCC2[C@H]1C(=O)NCCCCCC(=O)N[C@@H](CCCCN)C(=O)N1Cc2ccccc2C[C@H]1C(=O)N[C@@H](CCCCN)C(=O)N[C@@H](CCCCN)C(=O)N[C@@H](CCCCN)C(=O)N[C@@H](CCCCN)C(N)=O` (some centres undefined) (Ac-[Ahx]F[Tic][Pro(3ξ,4ξ-(CH2)4)][Ahx]K[Tic][Pro(3ξ,4ξ-(CH2)4)][Ahx]F[Tic][Pro(3ξ,4ξ-(CH2)4)][Ahx]K[Tic]KKKK-NH2), the MIC turned out to be 5.9 µM (≈ 15.7 µg/mL) in the assay on Acinetobacter baumannii [1]; 2.9 µM (≈ 7.73 µg/mL) against Acinetobacter baumannii [2]; 187 µM (≈ 498 µg/mL) in the assay with Staphylococcus aureus; 23.4 µM (≈ 62.4 µg/mL) in the assay on Yersinia pestis; 93 µM (≈ 248 µg/mL) in the assay with Brucella melitensis; 12 µM (≈ 32 µg/mL) with Brucella abortus. For the same molecule, the MIC is 47 µM (≈ 125 µg/mL) against Brucella suis; 1.5 µM (≈ 4 µg/mL) against Bacillus anthracis; 23.4 µM (≈ 62.4 µg/mL) with Francisella tularensis; 187 µM (≈ 498 µg/mL) against Burkholderia mallei; 187 µM (≈ 498 µg/mL) in assay [3].
On to `CC(=O)NCCCC(=O)N[C@@H](Cc1ccccc1)C(=O)N1Cc2ccccc2C[C@H]1C(=O)N1C[C@@H](C(=O)NCCCC(=O)N[C@@H](CCCCN)C(=O)N2Cc3ccccc3C[C@H]2C(=O)N2C[C@@H](C(=O)NCCCC(=O)N[C@@H](Cc3ccccc3)C(=O)N3Cc4ccccc4C[C@H]3C(=O)N3C[C@@H](C(=O)NCCCC(=O)N[C@@H](CCCCN)C(=O)N4Cc5ccccc5C[C@H]4C(=O)N[C@@H](CCCCN)C(=O)N[C@@H](CCCCN)C(=O)N[C@@H](CCCCN)C(=O)N[C@@H](CCCCN)C(N)=O)C4CCCCC43)C3CCCCC32)C2CCCCC21` (some centres undefined) (Ac-[GABA]F[Tic][X1][GABA]K[Tic][X1][GABA]F[Tic][X1][GABA]K[Tic]KKKK-NH2), for which the MIC against Acinetobacter baumannii [1] came to 3.1 µM (≈ 7.92 µg/mL); in the assay on Acinetobacter baumannii [2], 3.1 µM (≈ 7.92 µg/mL); in the assay on Staphylococcus aureus, 196 µM (≈ 500 µg/mL); with Yersinia pestis it was 196 µM (≈ 500 µg/mL); against Brucella melitensis, 196 µM (≈ 500 µg/mL); against Brucella abortus, 196 µM (≈ 500 µg/mL). Further, the MIC with Brucella suis was 196 µM (≈ 500 µg/mL); against Bacillus anthracis it was 12.5 µM (≈ 31.9 µg/mL); in the assay on Francisella tularensis, 196 µM (≈ 500 µg/mL); in the assay on Burkholderia mallei, 196 µM (≈ 500 µg/mL); in assay [3], 196 µM (≈ 500 µg/mL).
Take `CC(=O)NCCCC(=O)N[C@@H](Cc1ccccc1)C(=O)N1Cc2ccccc2C[C@H]1C(=O)N1C[C@@H](C(=O)NCCCC(=O)N[C@@H](CCCCN)C(=O)N2Cc3ccccc3C[C@H]2C(=O)N2C[C@@H](C(=O)NCCCC(=O)N[C@@H](Cc3ccccc3)C(=O)N3Cc4ccccc4C[C@H]3C(=O)N3C[C@@H](C(=O)NCCCC(=O)N[C@@H](CCCCN)C(=O)N4Cc5ccccc5C[C@H]4C(=O)N[C@@H](CCCCN)C(=O)N[C@@H](CCCCN)C(=O)N[C@@H](CCCCN)C(=O)N[C@@H](CCCCN)C(=O)N[C@@H](CCCCN)C(N)=O)C4CCCCC43)C3CCCCC32)C2CCCCC21` (some centres undefined) (Ac-[GABA]F[Tic][X1][GABA]K[Tic][X1][GABA]F[Tic][X1][GABA]K[Tic]KKKKK-NH2): the MIC was 5.8 µM (≈ 15.6 µg/mL) in the assay with Acinetobacter baumannii [1]; 2.9 µM (≈ 7.78 µg/mL) in the assay on Acinetobacter baumannii [2]; 46.6 µM (≈ 125 µg/mL) in the assay on Staphylococcus aureus; 46.6 µM (≈ 125 µg/mL) with Yersinia pestis; 46.6 µM (≈ 125 µg/mL) in the assay with Brucella melitensis; over 186 µM against Brucella abortus. For the same molecule, the MIC in the assay on Brucella suis stood at 93 µM (≈ 249 µg/mL); with Bacillus anthracis it was 0.71 µM (≈ 1.9 µg/mL); with Francisella tularensis, 186 µM (≈ 499 µg/mL); against Burkholderia mallei it was 186 µM (≈ 499 µg/mL); in [3] it was 186 µM (≈ 499 µg/mL).
